# Measurements reported in PubChem BioAssay AID192 (DTP/NCI, 2004).
# Several values for one entry are separate records, joined by “and”; a condition that tells them apart may be missing. Equal entries are not always repeated. Toxic doses and inconclusive results are not listed.
# Tested on: BDF1 mice, B16 melanoma ip, median survival T/C
# Test: NCI In Vivo Anticancer Drug Screen. Data for tumor model B16 Melanoma (intraperitoneal) in B6D2F1 (BDF1) mice
# Settings: endpoint: median survival time, higher = longer survival
# Outline: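 Read-out: survival or tumor size, given as treated/control ratio. Controls received vehicle only; animals bore transplantable tumors.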
# [1] = dose: 12.5 mg/kg/injection, schedule: Q01DX009 (ip), vehicle: Klucel (hydroxypropylcellulose) (HPC)
# [2] = dose: 6.25 mg/kg/injection, schedule: Q01DX009 (ip), vehicle: Klucel (hydroxypropylcellulose) (HPC)
# [3] = dose: 25.0 mg/kg/injection, schedule: Q01DX009 (ip), vehicle: Klucel (hydroxypropylcellulose) (HPC)
# [4] = dose: 50.0 mg/kg/injection, schedule: Q01DX009 (ip), vehicle: Klucel (hydroxypropylcellulose) (HPC)
# [5] = dose: 12.5 mg/kg/injection, schedule: Q01DX009 (ip), vehicle: saline with Tween-80
# [6] = dose: 25.0 mg/kg/injection, schedule: Q01DX009 (ip), vehicle: saline with Tween-80
# [7] = dose: 50.0 mg/kg/injection, schedule: Q01DX009 (ip), vehicle: saline with Tween-80
# [8] = dose: 100.0 mg/kg/injection, schedule: Q01DX009 (ip), vehicle: saline with Tween-80
# [9] = dose: 200.0 mg/kg/injection, schedule: Q01DX009 (ip), vehicle: saline with Tween-80
# [10] = dose: 100.0 mg/kg/injection, schedule: Q01DX009 (ip), vehicle: Klucel (hydroxypropylcellulose) (HPC)
# [11] = dose: 400.0 mg/kg/injection, schedule: Q01DX009 (ip), vehicle: saline with Tween-80
# [12] = dose: 0.13 mg/kg/injection, schedule: Q01DX009 (ip), vehicle: Klucel (hydroxypropylcellulose) (HPC)
# [13] = dose: 0.25 mg/kg/injection, schedule: Q01DX009 (ip), vehicle: Klucel (hydroxypropylcellulose) (HPC)
# [14] = dose: 0.5 mg/kg/injection, schedule: Q01DX009 (ip), vehicle: Klucel (hydroxypropylcellulose) (HPC)
# [15] = dose: 1.0 mg/kg/injection, schedule: Q01DX009 (ip), vehicle: Klucel (hydroxypropylcellulose) (HPC)
# [16] = dose: 12.5 mg/kg/injection, schedule: Q01DX009 (ip), vehicle: saline
# [17] = dose: 25.0 mg/kg/injection, schedule: Q01DX009 (ip), vehicle: saline
smiles,measurement,setting,value
CN(C)S(=O)(=O)c1ccc2c(c1)N(CCCN1CCN(S(C)(=O)=O)CC1)c1ccccc1S2,T/C,"dose: 0.78 mg/kg/injection, schedule: Q01DX009 (ip), vehicle: Klucel (hydroxypropylcellulose) (HPC)",87 % of control
same,T/C,"dose: 1.56 mg/kg/injection, schedule: Q01DX009 (ip), vehicle: Klucel (hydroxypropylcellulose) (HPC)",90 % of control
same,T/C,"dose: 3.12 mg/kg/injection, schedule: Q01DX009 (ip), vehicle: Klucel (hydroxypropylcellulose) (HPC)",90 % of control
same,T/C,[1],95 % of control
Nc1ccc(-c2ccc(N)c(Cl)c2)cc1Cl,T/C,"dose: 100.0 mg/kg/injection, schedule: Q04DX003 (ip), vehicle: Klucel (hydroxypropylcellulose) (HPC)",111 % of control
same,T/C,"dose: 200.0 mg/kg/injection, schedule: Q04DX003 (ip), vehicle: Klucel (hydroxypropylcellulose) (HPC)",108 % of control
same,T/C,"dose: 400.0 mg/kg/injection, schedule: Q04DX003 (ip), vehicle: Klucel (hydroxypropylcellulose) (HPC)",100 % of control
Nc1nc([Se])c2ncn(C3CC(O)C(CO)O3)c2n1 (stereo not given),T/C,[2],105 % of control
same,T/C,[1],124 % of control
same,T/C,[3],122 % of control
same,T/C,[4],111 % of control
CC(N)CN(C)C (stereo not given),T/C,"dose: 50.0 mg/kg/injection, schedule: Q01DX009 (ip), vehicle: saline",101 % of control
same,T/C,"dose: 100.0 mg/kg/injection, schedule: Q01DX009 (ip), vehicle: saline",102 % of control
same,T/C,"dose: 200.0 mg/kg/injection, schedule: Q01DX009 (ip), vehicle: saline",93 % of control
O=C(O[Si](Cc1ccccc1)(Cc1ccccc1)Cc1ccccc1)N(CCCl)CCCl,T/C,"dose: 6.25 mg/kg/injection, schedule: Q01DX009 (ip), vehicle: saline with Tween-80",100 % of control
same,T/C,[5],112 % of control
same,T/C,[6],104 % of control
same,T/C,[7],108 % of control
COC(=O)c1ccccc1C=C(c1ccc([N+](=O)[O-])cc1)c1ccc([N+](=O)[O-])cc1,T/C,[7],97 % of control
same,T/C,[8],113 % of control
same,T/C,[9],91 % of control
O=c1cc(-c2ccccc2)nc(Nc2nc3ccc([N+](=O)[O-])cc3[nH]2)[nH]1,T/C,[3],102 % of control
same,T/C,[4],90 % of control
same,T/C,[10],98 % of control and 103 % of control
CC[n+]1c(-c2ccccc2)c2cc(N)ccc2c2ccc(N)cc21,T/C,"dose: 0.75 mg/kg/injection, schedule: Q01DX009 (ip), vehicle: water",98 % of control
same,T/C,"dose: 1.0 mg/kg/injection, schedule: Q01DX009 (ip), vehicle: saline",95 % of control
same,T/C,"dose: 1.5 mg/kg/injection, schedule: Q01DX009 (ip), vehicle: water",106 % of control
same,T/C,"dose: 1.56 mg/kg/injection, schedule: Q01DX009 (ip), vehicle: saline",105 % of control
same,T/C,"dose: 2.0 mg/kg/injection, schedule: Q01DX009 (ip), vehicle: saline",95 % of control
same,T/C,"dose: 3.0 mg/kg/injection, schedule: Q01DX009 (ip), vehicle: water",108 % of control
same,T/C,"dose: 3.12 mg/kg/injection, schedule: Q01DX009 (ip), vehicle: saline",158 % of control
same,T/C,"dose: 4.0 mg/kg/injection, schedule: Q01DX009 (ip), vehicle: saline sonified",120 % of control
same,T/C,"dose: 4.0 mg/kg/injection, schedule: Q01DX009 (ip), vehicle: saline",108 % of control
same,T/C,"dose: 6.0 mg/kg/injection, schedule: Q01DX009 (ip), vehicle: water",112 % of control
same,T/C,"dose: 8.0 mg/kg/injection, schedule: Q01DX009 (ip), vehicle: saline sonified",115 % of control
same,T/C,"dose: 8.0 mg/kg/injection, schedule: Q01DX009 (ip), vehicle: saline",108 % of control
C=NCC#N,T/C,[8],93 % of control
same,T/C,[9],88 % of control
same,T/C,[11],93 % of control
CCOC(=O)C1=NN(c2ccccc2)C(=O)C1,T/C,[10],97 % of control
same,T/C,"dose: 200.0 mg/kg/injection, schedule: Q01DX009 (ip), vehicle: Klucel (hydroxypropylcellulose) (HPC)",97 % of control
same,T/C,"dose: 400.0 mg/kg/injection, schedule: Q01DX009 (ip), vehicle: Klucel (hydroxypropylcellulose) (HPC)",97 % of control
Cc1c2cc3c(c1O)C(=O)CC(O3)c1ccc(O)c(c1)-c1cccc(c1O)C(=O)OCC1OC(O2)C(O)C(O)C1O (stereo not given),T/C,[12],93 % of control
same,T/C,[13],95 % of control
same,T/C,[14],89 % of control
same,T/C,[15],88 % of control
COc1ccc(NC(=O)Nc2cc(Cl)ccc2OC)cc1,T/C,[3],92 % of control
same,T/C,[4],92 % of control
O=C1C(=O)c2cccc3cccc1c23,T/C,[16],88 % of control
same,T/C,[17],94 % of control
O=C(O)C(/C=C/c1ccccc1)c1ccccc1 (stereo not given),T/C,[8],95 % of control
same,T/C,[11],105 % of control
CCCCCCCCCCCCCCCCCN,T/C,[2],103 % of control
same,T/C,[1],100 % of control
same,T/C,[3],93 % of control
CCc1ccc(NC(=O)C(c2ccccc2)c2ccccc2)cc1,T/C,[5],89 % of control
same,T/C,[6],86 % of control
Cc1c2cc3c(c1O)C(=O)CC(O3)c1ccc(O)c(c1)-c1ccc(O)c(c1)C(=O)OCC1OC(O2)C(O)C(O)C1O (stereo not given),T/C,[12],91 % of control
same,T/C,[13],94 % of control
same,T/C,[14],95 % of control
same,T/C,[15],94 % of control
COc1cccc2c1C(=O)c1c(O)c3c(c(O)c1C2=O)C[C@@](O)(/C(C)=N/NC(=O)c1cccc([N+](=O)[O-])c1)C[C@@H]3OC1CC(N)C(O)C(C)O1 (stereo not given in full),T/C,"dose: 2.0 mg/kg/injection, schedule: Q01DX001 (ip), vehicle: water",153 % of control
same,T/C,"dose: 4.0 mg/kg/injection, schedule: Q01DX001 (ip), vehicle: water",158 % of control and 164 % of control
same,T/C,"dose: 8.0 mg/kg/injection, schedule: Q01DX001 (ip), vehicle: water",168 % of control and 178 % of control
same,T/C,"dose: 16.0 mg/kg/injection, schedule: Q01DX001 (ip), vehicle: water",164 % of control and 184 % of control
same,T/C,"dose: 32.0 mg/kg/injection, schedule: Q01DX001 (ip), vehicle: water",95 % of control
O=Cc1ccc(C(=O)O)cc1,T/C,"dose: 100.0 mg/kg/injection, schedule: Q04DX003 (ip), vehicle: saline with Tween-80",93 % of control
same,T/C,"dose: 200.0 mg/kg/injection, schedule: Q04DX003 (ip), vehicle: saline with Tween-80",93 % of control
same,T/C,"dose: 400.0 mg/kg/injection, schedule: Q04DX003 (ip), vehicle: saline with Tween-80",86 % of control
CCN(CC)CCCC(C)NC/C=C/CNC(C)CCCN(CC)CC (stereo not given),T/C,"dose: 6.25 mg/kg/injection, schedule: Q01DX009 (ip), vehicle: saline",105 % of control
same,T/C,[16],103 % of control
same,T/C,[17],102 % of control
C=C(C)C(=O)OCC12CCC(C)=CC1OC1C(O)C(OC(=O)CCl)C2(C)C12CO2 (stereo not given),T/C,"dose: 0.25 mg/kg/injection, schedule: Q01DX009 (ip), vehicle: water",122 % of control
same,T/C,"dose: 0.5 mg/kg/injection, schedule: Q01DX009 (ip), vehicle: water",124 % of control
same,T/C,"dose: 1.0 mg/kg/injection, schedule: Q01DX009 (ip), vehicle: water",152 % of control
same,T/C,"dose: 2.0 mg/kg/injection, schedule: Q01DX009 (ip), vehicle: water",152 % of control
COc1cc2ccc3c[n+]4ccccc4cc3c2cc1OC,T/C,"dose: 25.0 mg/kg/injection, schedule: Q04DX009 (ip), vehicle: Klucel (hydroxypropylcellulose) (HPC)",97 % of control
same,T/C,"dose: 50.0 mg/kg/injection, schedule: Q04DX009 (ip), vehicle: Klucel (hydroxypropylcellulose) (HPC)",93 % of control
same,T/C,"dose: 100.0 mg/kg/injection, schedule: Q04DX009 (ip), vehicle: Klucel (hydroxypropylcellulose) (HPC)",89 % of control
same,T/C,"dose: 150.0 mg/kg/injection, schedule: Q04DX009 (ip), vehicle: Klucel (hydroxypropylcellulose) (HPC)",95 % of control
